The supplement of paper PMC8837787

Test system: Saccharomyces cerevisiae ABC16-Green Monster
Details: 18 h; 30 °C; YPD
How it was run: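 In 96-well plates, 200 µl per well of log-phase drug-sensitive S. cerevisiae ABC16-Green Monster in YPD received eight 1:2 compound dilutions (final 0.1–150 μM) in biological duplicate and was incubated for 18 h at 30 °C. OD600 was read at the start and at 18 h. IC50 was fitted to the background-subtracted readings by variable-slope nonlinear regression in GraphPad Prism.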

SMILES	IC50 growth inhibition
CN1CCCN=C1C=Cc1cccs1.O=C(O)c1cc2ccccc2c(Cc2c(O)c(C(=O)O)cc3ccccc23)c1O [Pyrantal Pamoate]	> 75 µM
O=P(O)(O)C(O)(Cn1ccnc1)P(=O)(O)O [Zoledronate]	> 75 µM
COc1cccc(-n2nnnc2S(=O)(=O)Cc2ccccc2)c1	16.1 µM
COCCNCC(O)Cn1c2ccc(Cl)cc2c2cc(Cl)ccc21 (stereo unspecified)	11 µM
c1cc2c(cc1C1=NNC(=NC3CC3)SC1)CCCC2	50.8 µM
O=C1c2ccccc2C2=Nc3ccccc3SC(c3ccccc3F)C12 (stereo unspecified) [GNF-Pf-3582]	5.87 µM
Nc1[nH]c(=O)ncc1F [Flucytosine]	15.1 µM
O[C@@H](c1cc(C(F)(F)F)nc2c(C(F)(F)F)cccc12)[C@H]1CCCCN1	45.6 µM
N#Cc1c(N2CCCC2)nn(C(=O)Nc2ccc(Cl)c(Cl)c2)c1N	4.53 µM
CC1(C)c2nc(-c3ccc(F)cc3)c(Nc3ccc(Cl)cc3)n2CCN1C(=O)CN [GNF179]	38 µM
Cc1nc(-c2ccccn2)nc(N2CCC(Cc3ccccc3)C2)c1Cl (stereo unspecified)	21 µM
CCS(=O)(=O)N1Cc2ccccc2CC1C(=O)Nc1nc2ccc(F)cc2s1 (stereo unspecified)	74 µM
CC(C)(C)C1CCc2[nH]c3ccccc3c(=O)c2C1 (stereo unspecified) [GNF-Pf-3815]	60.3 µM
Cc1ccc(S(=O)(=O)n2cc(-c3ccnc(N)c3)c3cc(Br)cnc32)cc1	6.17 µM
COc1cc(N2CCC(N3CCN(C)CC3)CC2)ccc1Nc1ncc(Cl)c(Nc2ccccc2P(C)(C)=O)n1 [Brigatinib]	> 75 µM
FC(F)Sc1ccc2nc3ccccc3c(N3CCOCC3)c2c1	30 µM
O=C1N(Cc2cc3ccccc3s2)CC2CN(Cc3ccccc3)CCN12 (stereo unspecified)	30.2 µM
Cc1cc(C(=O)ONC(=N)c2ccccc2)nn1C(C)(C)C	63.5 µM
C=CCC1C=C(C)CC(C)CC(OC)C2OC(O)(C(=O)C(=O)N3CCCCC3C(=O)OC(C(C)=CC3CCC(O)C(OC)C3)C(C)C(O)CC1=O)C(C)CC2OC (stereo unspecified) [Tacrolimus/FK-506]	> 75 µM
CC[C@H]1OC(=O)[C@H](C)[C@@H](O[C@H]2C[C@@](C)(OC)[C@@H](O)[C@H](C)O2)[C@H](C)[C@@H](O[C@@H]2O[C@H](C)C[C@H](N(C)C)[C@H]2O)[C@](C)(O)C[C@@H](C)C(=O)[C@H](C)[C@@H](O)[C@]1(C)O [Erythromycin]	> 75 µM
COC1=CC(C)=CC(C)C(O)C(C)CC(C)=CC=CC(OC)C(C(C)C(O)C(C)C2(O)CC(O)C(C)C(C(C)C)O2)OC1=O (stereo unspecified) [Bafilomycin A1]	0.164 µM
Cc1nc(C(=N)NOC(=O)c2c(-c3c(Cl)cccc3Cl)noc2C)cs1	21.2 µM
COc1cc(CNC(=O)CCCCC=CC(C)C)ccc1O [Capsaicin]	> 150 µM
O=C(O)[C@]1(Cc2cccc(Nc3nccs3)n2)CC[C@@H](Oc2cccc(Cl)c2F)CC1 [MK-5108]	> 75 µM
Cc1[nH]c2ccccc2c(=O)c1CC=C(Cl)Cl [GNF-Pf-4439]	> 150 µM
c1csc(-c2cnc3sc(NCC4CCOCC4)nn23)c1	2.98 µM

SMILES	IC50 growth inhibition
O=C(c1cccs1)N1CCN(c2ccc([N+](=O)[O-])c(NC3CC3)c2)CC1 [GNF-Pf-3455]	> 150 µM
CC(=O)Nc1cccc(-n2c(=O)n(C3CC3)c(=O)c3c(Nc4ccc(I)cc4F)n(C)c(=O)c(C)c32)c1 [Trametinib]	> 75 µM
Cc1noc(C)c1C(=O)N1CCCC(c2[nH]c3c(C)cccc3c2-c2ccncc2)C1 (stereo unspecified)	20.8 µM
CC(c1cc(Cl)cc(Cl)c1)N(C)c1ncc2c(N)nc(N)nc2n1 (stereo unspecified)	40.1 µM
Cc1c(N)nc(C(CC(N)=O)NCC(N)C(N)=O)nc1C(=O)NC(C(=O)NC(C)C(O)C(C)C(=O)NC(C(=O)NCCc1nc(-c2nc(C(=O)NCCC[S+](C)C)cs2)cs1)C(C)O)C(OC1OC(CO)C(O)C(O)C1OC1OC(CO)C(O)C(OC(N)=O)C1O)c1cnc[nH]1 (stereo unspecified) [Bleomycin (JP1)]	> 75 µM
O=C(Nc1nc(-c2ccccn2)cs1)C1CC1c1ccccc1F (stereo unspecified)	6.32 µM
CC1CC(C)C(=O)C(C(O)CC2CC(=O)NC(=O)C2)C1 (stereo unspecified) [Cycloheximide]	0.0378 µM
COc1ccc2nc(S(=O)Cc3ncc(C)c(OC)c3C)[nH]c2c1 (stereo unspecified) [Omeprazole]	> 75 µM
CN(Cc1ccc(Cl)s1)C(=O)Cn1ncc(Br)c(Br)c1=O	24.2 µM
c1ccc(-c2cn3nc(N4CCN(Cc5cn6ccccc6n5)CC4)sc3n2)cc1	50.8 µM
O=C1C=CC(=O)N1c1ccc(C2CCCCC2)cc1	1.69 µM
FC(F)(F)c1ccc(N(c2cccnc2)C2CCN(c3ccc(C(F)(F)F)cn3)CC2)cc1	40 µM
C=CCc1ccc(O)c(-c2ccc(O)c(CC=C)c2)c1 [Honokiol]	13.2 µM
CCC1(O)C(=O)OCc2c1cc1n(c2=O)Cc2cc3ccccc3nc2-1 (stereo unspecified) [Camptothecin]	1.61 µM
OCCNc1nc(Nc2ccc(Cl)c(Cl)c2)nc2ccccc12	14 µM
C[C@H]1Cc2c([nH]c3cc(Cl)c(F)cc23)[C@@]2(N1)C(=O)Nc1ccc(Cl)cc12 [KAE609]	7.65 µM
O=C(Nc1ccc(C(F)(F)F)c(C(F)(F)F)c1)c1cc(Cl)ccc1O	5.64 µM
COC(=O)C1=C(C)NC(C)=C(C(=O)OC(C)C)C1c1cccc2nonc12 (stereo unspecified) [Israpidine]	> 150 µM
Nc1ccc(C(=O)Nc2ccc(-c3nc4ccccc4o3)cc2)cc1	19 µM
CC1CCC2C(C)C(=O)OC3OC4(C)CCC1C32OO4 (stereo unspecified) [Artemisinin]	34.3 µM
CS(=O)(=O)CCNCc1ccc(-c2ccc3ncnc(Nc4ccc(OCc5cccc(F)c5)c(Cl)c4)c3c2)o1 [lapatinib]	5.96 µM
O=C(c1ccco1)N(CCCn1ccnc1)c1nc2c(Cl)cccc2s1	40.8 µM
N=C(N)Nc1ccc(-c2ccc(-c3ccc(NC(=N)N)cc3Cl)o2)c(Cl)c1	44.5 µM
CCC(NC(=O)c1ccccc1NC(=O)c1ccc(C)cc1)C(=O)OC (stereo unspecified)	31.7 µM
CNC(=O)c1ccccc1Nc1nc(Nc2ccc3c(c2OC)CCC[C@H](N2CCN(CCO)CC2)C3)ncc1Cl	37.7 µM
CCOC(=O)Nc1ccc(NCc2ccc(F)cc2)cc1N [Retigabine]	> 75 µM

SMILES	IC50 growth inhibition
COc1cc2c(c(OC)c1OC)-c1ccc(OC)c(=O)cc1C(NC(C)=O)CC2 (stereo unspecified) [Colchicine]	> 75 µM
C=CCn1c(C)cc(C(=O)CSc2nc3ccccc3[nH]2)c1C	4.24 µM
CCOC(=O)C1=C(C)NC(C)=C(C(=O)OC)C1c1cccc(Cl)c1Cl (stereo unspecified) [Felodipine]	20.7 µM
O=c1c(Cl)c(Cl)cnn1-c1nc2ccccc2[nH]1	13.2 µM
CNC(=O)c1cc(Oc2ccc(NC(=O)Nc3ccc(Cl)c(C(F)(F)F)c3)cc2)ccn1 [Sorafenib]	4.27 µM
CN(C)CCC=C1c2ccccc2CCc2ccccc21 [Amitriptyline]	56.8 µM
c1ccc(-c2cc(N3CCCCC3)c3ccccc3n2)nc1	42.9 µM
CC[C@@]1(O)C[C@H](O[C@H]2C[C@H](N(C)C)[C@H](O[C@H]3C[C@H](O)[C@H](O[C@H]4CCC(=O)[C@H](C)O4)[C@H](C)O3)[C@H](C)O2)c2c(cc3c(c2O)C(=O)c2c(O)cccc2C3=O)[C@H]1C(=O)OC [Aclarubicin]	4.79 µM
O=C(Nc1ccc(N2CCNCC2)cc1)c1ccn2ncc(-c3cccc(Cl)c3)c2n1	8 µM
Oc1c(I)cc(I)c2cccnc12 [Iodoquinol]	5.5 µM
CON=C(C(=O)OC)c1ccccc1CON=C(C)c1cccc(C(F)(F)F)c1 [Trifloxystrobin]	> 75 µM
CC1COC(Cn2cncn2)(c2ccc(Oc3ccc(Cl)cc3)cc2Cl)O1 (stereo unspecified)	39 µM
CCC(C)CC(C)CCCCCCCCC(=O)NC1CC(O)C(NCCN)NC(=O)C2C(O)CCN2C(=O)C(C(O)CCN)NC(=O)C(C(O)C(O)c2ccc(O)cc2)NC(=O)C2CC(O)CN2C(=O)C(C(C)O)NC1=O (stereo unspecified) [Caspofungin]	0.0305 µM
CC1(C)C2CCC(C2)C1(C)NC(=S)NN=Cc1ccccn1 (stereo unspecified) [GNF-Pf-5458]	3.1 µM
Cc1nc2ccccc2nc1SC(C)C(=O)c1c[nH]c2ccccc12 (stereo unspecified)	33.8 µM
CC(C)c1csc(NC(=O)c2cnn(-c3ccccc3F)c2C(F)(F)F)n1	31.3 µM
O=C(Nc1ccc(Cl)c(Cl)c1)Nc1ccc(Cl)c(Cl)c1	0.32 µM
C/C=C/[C@H]1O[C@@](O)([C@@H](C)[C@H](O)[C@H](C)[C@H]2OC(=O)/C(OC)=C\C(C)=C\[C@@H](C)[C@@H](O)[C@@H](CC)[C@@H](O)[C@H](C)C/C(C)=C/C=C/[C@@H]2OC)C[C@@H](O[C@H]2C[C@@H](O)[C@H](OC(=N)O)[C@@H](C)O2)[C@@H]1C [Concanamycin A]	6.1 µM
CC(C)(C)c1ccc2c(c1)CN(Cc1ccc(Cl)cc1)CO2	14.3 µM
CC(=O)OC1C(=O)C2(C)C(O)CC3OCC3(OC(C)=O)C2C(OC(=O)c2ccccc2)C2(O)CC(OC(=O)C(O)C(NC(=O)c3ccccc3)c3ccccc3)C(C)=C1C2(C)C (stereo unspecified) [Paclitaxel]	> 75 µM
CCS(=O)(=O)N1CCN(c2ccc(Nc3ncc(C(N)=O)c(NC4CC4)n3)cc2)CC1 [Cerdulatinib]	8.06 µM
NC(CC(=O)c1ccc(Cl)cc1Cl)C(Cl)(Cl)Cl (stereo unspecified)	46.4 µM
CCC1(O)CC2CN(CCc3c([nH]c4ccccc34)C(C(=O)OC)(c3cc4c(cc3OC)N(C)C3C(O)(C(=O)OC)C(OC(C)=O)C5(CC)C=CCN6CCC43C65)C2)C1 (stereo unspecified) [Vinblastine]	> 75 µM
CC[P](CC)(CC)=[Au][S][C@H]1O[C@@H](COC(C)=O)[C@H](OC(C)=O)[C@@H](OC(C)=O)[C@@H]1OC(C)=O	28.2 µM
